# Counter-ions that a name gives are not always drawn. Like-named read-outs stand apart in the source and are kept apart here.
# Tested on: P. mirabilis 889
# Test: MIC, antibacterial activity
# Format: cell-based
# Conditions: Proteus mirabilis
SMILES,"MIC (strain P. mirabilis 889, read-out: MIC against P. mirabilis 889)","MIC (889, strain number not given, read-out: MIC against P.mirabilis)"
"CCN1CCN(C(=O)N[C@@H](C(=O)N[C@]2(NC=O)C(=O)N3C(C(=O)O)=C(CSc4nnnn4CC(N)=O)CS[C@@H]32)c2ccccc2)C(=O)C1=O [Example 13, 3-[1-carbamoylmethyl-1H-tetrazol-5-yl)thiomethyl]-7β-[2-[(4-ethyl-2,3-dioxopiperazin-1-yl)-carbonylamino]-2-phenyl-acetamido]-7a-formamidoceph-3-em-4-carboxylic acid, sodium salt]",0.12 µg/mL,–
"CCN1CCN(C(=O)N[C@@H](C(=O)N[C@]2(NC=O)C(=O)N3C(C(=O)O)=C(CSc4nnnn4CC(N)=O)CS[C@@H]32)c2ccc(OC(C)=O)c(OC(C)=O)c2)C(=O)C1=O [Example 14, Sodium 3-[(1-carbamoylmethyl-1H-tetrazol-5-yl)thiomethyl]-7β-[D-2-(3,4-diacetoxyphenyl)-2-[(4-ethyl-2,3-dioxopiperazin-1-yl)carbonylamino]acetamido)-7α-formamidoceph-3-em-4-carboxylate]",–,0.12 µg/mL
